From patent US6537744B1, “Use of biomarkers in saliva to evaluate the toxicity of agents and the function of tissues in both biomedical and environmental applications” (priority 1995, dated 2003)

What was measured:
[1] = system: carboxylase in human saliva; test: Inhibition of carboxylase in human saliva (p-nitrophenylvalerate hydrolysis, 400 nm); format: biochemical
Procedure: The carboxylase activity in saliva samples is monitored by the hydrolysis of p-nitrophenylvalerate to the readily detectable p-nitrophenol. The concentration of p-nitrophenol in the sample is measured spectrophotometrically at 400 nm, and the value is calculated from p-nitrophenol standard curve (Table 3 and FIG. 4). Values for carboxylase activity in saliva (nmol. min-1 per mL of saliva) are presented in Tables 4-8 and showing in FIG. 5 and FIG. 6. The average specific activity for carboxylase in human saliva is about 47 nmol min^−1 per mL.
The assay for carboxylase consists of 4 mL of tris-HCl buffer (pH 7.0) that contain 25 μL of p-nitrophenylvalerate (13.8 mg/mL of alcohol) and 50-500 μL of human saliva. […] In the inhibition study, the agent is incubated with saliva for about 15-20 minutes before the addition of p-nitrophenylvalerate. Organophosphate concentration is verified by gas chromatography using standard methods as described by Knaak et al. (1993).

[2] = system: acetylcholinesterase in human saliva; test: Inhibition of acetylcholinesterase in human saliva (acetylthiocholine iodide/DTNB, 405 nm); format: biochemical; settings: for % Activity / % Inhibition / Absorb. at 408 nm for 65 min. / Absorb. at 408 nm for 180 min. / nmol/min per mg: 0.6 mL saliva, 30 min preincubation at room temperature
Procedure: The hydrolysis of acetylthiocholine iodide (an analog of acetylcholine iodides) by the saliva enzyme or enzymes is measured by generating the yellow 5-thio-2-nitrobenzoate with an absorbance maximum at 405 nm. The rate of change of absorbance is directly proportional to acetylcholinesterase activity. In this procedure, 0.1-1 mL of saliva (3.261 mg protein/mL) is incubated with 100 μL of acetylthiocholine iodide (0.018M) (lot #10H0653 Sigma) for 30-180 minute at 37° C. in 4.0 mL phosphate buffer (pH 7.8). After the incubation, a 0.2 mL of DTNB is added and the sample is read at 405 nm. The enzyme activity is calculated from glutathione standard curve (Table 9 and FIG. 9). Values for AChE activity in human saliva and enzyme kinetics are presented in Tables 10-14 and show in FIG. 10 through FIG. 14.
The AChE specific activity in saliva is about 4 nmol minute^−1 per mL of saliva. […] The percent of enzyme inhibition by organophosphate is calculated and presented in Tables 13-14 and showing in FIG. 15.

[3] = 1.0 ng/ml, Test #2, 0.2 mL saliva, 15 min preincubation at 37° C., 30 min with substrate
[4] = 2.9 ng/ml, Test #2, 0.2 mL saliva, 15 min preincubation at 37° C., 30 min with substrate
[5] = 8.6 ng/ml, Test #2, 0.2 mL saliva, 15 min preincubation at 37° C., 30 min with substrate
[6] = 26 ng/mL, Test #1, 100 μL saliva, 15 min preincubation at 37° C.
[7] = 52 ng/mL, Test #1, 100 μL saliva, 15 min preincubation at 37° C.
[8] = 78 ng/mL, Test #1, 100 μL saliva, 15 min preincubation at 37° C.
[9] = 156 ng/mL, Test #1, 100 μL saliva, 15 min preincubation at 37° C.
[10] = 312 ng/mL, Test #1, 100 μL saliva, 15 min preincubation at 37° C.
[11] = 625 ng/mL, Test #1, 100 μL saliva, 15 min preincubation at 37° C.
[12] = 175 μg/ml, test #1, 200 μL saliva, 15 min preincubation, 37° C.
[13] = .04 ng/ml, Test #2, 0.2 mL saliva, 15 min preincubation at 37° C., 30 min with substrate
[14] = .1 ng/ml, Test #2, 0.2 mL saliva, 15 min preincubation at 37° C., 30 min with substrate
[15] = .3 ng/ml, Test #2, 0.2 mL saliva, 15 min preincubation at 37° C., 30 min with substrate
[16] = 2 μg of DNIO in 4.0 mL, Test #2, 200 μL saliva, 37° C.

Compound: CCOP(N)(=O)Oc1ccccc1C(=O)OC(C)C (centres unmarked) [DNIO, des N-Isofenphos-oxon]
- % Activity [1, 3]: 57%
- % Inhibition [1, 3]: 43%
- Absorb. at 400 nm [1, 3]: .46
- nmol/min per mg protein [1, 3]: 7.46 nmol/min per mg protein
- % Activity [1, 4]: 50%
- % Inhibition [1, 4]: 50%
- Absorb. at 400 nm [1, 4]: .40
- nmol/min per mg protein [1, 4]: 6.55 nmol/min per mg protein
- % Activity [1, 5]: 40%
- % Inhibition [1, 5]: 60%
- Absorb. at 400 nm [1, 5]: .32
- nmol/min per mg protein [1, 5]: 5.24 nmol/min per mg protein
- % Activity [1, 6]: 3%
- % Inhibition [1, 6]: 97%
- Absorb. at 400 nm for 20 min. [1, 6]: .02
- Absorb. at 400 nm for 40 min. [1, 6]: .03
- Absorb. at 400 nm for 80 min [1, 6]: .02
- % Activity [1, 7]: 5%
- % Inhibition [1, 7]: 95%
- Absorb. at 400 nm for 20 min. [1, 7]: .03
- Absorb. at 400 nm for 40 min. [1, 7]: .03
- Absorb. at 400 nm for 80 min [1, 7]: .03
- % Activity [1, 8]: 3%
- % Inhibition [1, 8]: 97%
- Absorb. at 400 nm for 20 min. [1, 8]: .02
- Absorb. at 400 nm for 40 min. [1, 8]: .02
- Absorb. at 400 nm for 80 min [1, 8]: .02
- % Activity [1, 9]: 5%
- % Inhibition [1, 9]: 95%
- Absorb. at 400 nm for 20 min. [1, 9]: .02
- Absorb. at 400 nm for 40 min. [1, 9]: .02
- Absorb. at 400 nm for 80 min [1, 9]: .03
- % Activity [1, 10]: 13%
- % Inhibition [1, 10]: 87%
- Absorb. at 400 nm for 20 min. [1, 10]: .04
- Absorb. at 400 nm for 40 min. [1, 10]: .06
- Absorb. at 400 nm for 80 min [1, 10]: .08
- % Activity [1, 11]: 16%
- % Inhibition [1, 11]: 84%
- Absorb. at 400 nm for 20 min. [1, 11]: .05
- Absorb. at 400 nm for 40 min. [1, 11]: .07
- Absorb. at 400 nm for 80 min [1, 11]: .10
- % Act. ([1]; 5 μg/mL, Test #2, 50 μL saliva, 20 min preincubation): 35%
- % Inhib. [1, 12]: 92%
- Absorb. at 400 nm for 20 min. [1, 12]: .16
- Absorb. at 400 nm for 60 min. [1, 12]: .55
- % Activity [1, 13]: 94%
- % Inhibition [1, 13]: 6%
- Absorb. at 400 nm [1, 13]: .75
- nmol/min per mg protein [1, 13]: 12.31 nmol/min per mg protein
- % Activity [1, 14]: 83%
- % Inhibition [1, 14]: 17%
- Absorb. at 400 nm [1, 14]: .66
- nmol/min per mg protein [1, 14]: 10.87 nmol/min per mg protein
- % Activity [1, 15]: 78%
- % Inhibition [1, 15]: 22%
- Absorb. at 400 nm [1, 15]: .62
- nmol/min per mg protein [1, 15]: 10.21 nmol/min per mg protein
- effective concentration for 50% inhibition EC50 ([1]; carboxylase, human saliva): 3 ng/mL
- inhibition of carboxylase (in words) ([1]; human saliva): inhibited
- % Activity ([2]; 1.0 ng/mL, Test #2): 68%
- % Inhibition ([2]; 1.0 ng/mL, Test #2): 32%
- Absorb. at 408 nm for 65 min. ([2]; 1.0 ng/mL, Test #2): .17
- Absorb. at 408 nm for 180 min. ([2]; 1.0 ng/mL, Test #2): .21
- nmol/min per mg ([2]; 1.0 ng/mL, Test #2): .29 nmol/min per mg
- % Activity ([2]; 2.9 ng/mL, Test #2): 45%
- % Inhibition ([2]; 2.9 ng/mL, Test #2): 55%
- Absorb. at 408 nm for 65 min. ([2]; 2.9 ng/mL, Test #2): .16
- Absorb. at 408 nm for 180 min. ([2]; 2.9 ng/mL, Test #2): .14
- nmol/min per mg ([2]; 2.9 ng/mL, Test #2): .19 nmol/min per mg
- % Activity ([2]; 8.6 ng/mL, Test #2): 26%
- % Inhibition ([2]; 8.6 ng/mL, Test #2): 74%
- Absorb. at 408 nm for 65 min. ([2]; 8.6 ng/mL, Test #2): .11
- Absorb. at 408 nm for 180 min. ([2]; 8.6 ng/mL, Test #2): .08
- nmol/min per mg ([2]; 8.6 ng/mL, Test #2): .11 nmol/min per mg
- % Activity ([2]; 26 ng/mL, Test #2): 19%
- % Inhibition ([2]; 26 ng/mL, Test #2): 81%
- Absorb. at 408 nm for 65 min. ([2]; 26 ng/mL, Test #2): .11
- Absorb. at 408 nm for 180 min. ([2]; 26 ng/mL, Test #2): .06
- nmol/min per mg ([2]; 26 ng/mL, Test #2): .08 nmol/min per mg
- % Activity ([2]; 52 ng/mL, Test #2): 13%
- % Inhibition ([2]; 52 ng/mL, Test #2): 87%
- Absorb. at 408 nm for 65 min. ([2]; 52 ng/mL, Test #2): .09
- Absorb. at 408 nm for 180 min. ([2]; 52 ng/mL, Test #2): .04
- nmol/min per mg ([2]; 52 ng/mL, Test #2): .05 nmol/min per mg
- % Activity ([2]; 78 ng/mL, Test #2): 13%
- % Inhibition ([2]; 78 ng/mL, Test #2): 87%
- Absorb. at 408 nm for 65 min. ([2]; 78 ng/mL, Test #2): .10
- Absorb. at 408 nm for 180 min. ([2]; 78 ng/mL, Test #2): .04
- nmol/min per mg ([2]; 78 ng/mL, Test #2): .05 nmol/min per mg
- % Activity ([2]; 156 ng/mL, Test #2): 13%
- % Inhibition ([2]; 156 ng/mL, Test #2): 87%
- Absorb. at 408 nm for 65 min. ([2]; 156 ng/mL, Test #2): .10
- Absorb. at 408 nm for 180 min. ([2]; 156 ng/mL, Test #2): .04
- nmol/min per mg ([2]; 156 ng/mL, Test #2): .05 nmol/min per mg
- % Activity ([2]; 313 ng/mL, Test #2): 10%
- % Inhibition ([2]; 313 ng/mL, Test #2): 90%
- Absorb. at 408 nm for 65 min. ([2]; 313 ng/mL, Test #2): .07
- Absorb. at 408 nm for 180 min. ([2]; 313 ng/mL, Test #2): .03
- nmol/min per mg ([2]; 313 ng/mL, Test #2): .04 nmol/min per mg
- % Activity ([2]; 625 ng/mL, Test #2): 10%
- % Inhibition ([2]; 625 ng/mL, Test #2): 90%
- Absorb. at 408 nm for 65 min. ([2]; 625 ng/mL, Test #2): .07
- Absorb. at 408 nm for 180 min. ([2]; 625 ng/mL, Test #2): .03
- nmol/min per mg ([2]; 625 ng/mL, Test #2): .04 nmol/min per mg
- Absorb. at 405 nm for 50 min. [2, 16]: .14
- Absorb. at 405 nm for 110 min. [2, 16]: .10
- Absorb. at 405 nm for 165 min. [2, 16]: .11
- Activity ([2]; 2 μg of DNIO in 4.0 mL, Test #2, 200 μL saliva, 37° C. (no inhibitor: 1.14)): .22 nmol/min
- % Activity ([2]; .04 ng/mL, Test #2): 94%
- % Inhibition ([2]; .04 ng/mL, Test #2): 6%
- Absorb. at 408 nm for 65 min. ([2]; .04 ng/mL, Test #2): .17
- Absorb. at 408 nm for 180 min. ([2]; .04 ng/mL, Test #2): .29
- nmol/min per mg ([2]; .04 ng/mL, Test #2): .39 nmol/min per mg
- % Activity ([2]; .1 ng/mL, Test #2): 90%
- % Inhibition ([2]; .1 ng/mL, Test #2): 10%
- Absorb. at 408 nm for 65 min. ([2]; .1 ng/mL, Test #2): .14
- Absorb. at 408 nm for 180 min. ([2]; .1 ng/mL, Test #2): .28
- nmol/min per mg ([2]; .1 ng/mL, Test #2): .37 nmol/min per mg
- % Activity ([2]; .3 ng/mL, Test #2): 84%
- % Inhibition ([2]; .3 ng/mL, Test #2): 16%
- Absorb. at 408 nm for 65 min. ([2]; .3 ng/mL, Test #2): .21
- Absorb. at 408 nm for 180 min. ([2]; .3 ng/mL, Test #2): .26
- nmol/min per mg ([2]; .3 ng/mL, Test #2): .34 nmol/min per mg
- Absorb. at 405 nm for 100 min. ([2]; DNIO 4 μg in 4 mL, Test #1, 1.0 mL saliva, pH 7.8): .03
- effective concentration for 50% inhibition EC50 ([2]; acetylcholinesterase, human saliva): 3 ng/mL
- inhibition of acetylcholinesterase (in words) ([2]; human saliva): inhibited
- concentration that produced 50% inhibition in AChE ([2]; saliva incubated with inhibitor about 15 minutes before substrate): 3 ng per mL
